In US20110136897A1, “TOLL-LIKE RECEPTOR 9 AGONISTS FOR THE TREATMENT OF ANXIETY-RELATED DISORDERS AND INFLAMMATORY DISORDERS” (YISSUM RESEARCH DEVELOPMENT COMPANY OF THE HEBREW …, priority 2008, published 2011):

Tests used:
[1] = system: RAW264.7 cells; test: RT-PCR of inflammatory genes in RAW264.7 cells (Table 2); format: cell-based, mouse
Description: Real-time PCR (RT-PCR): Brains were dissected and tissues stored frozen at −70° C. until use. Hippocampal RNA was extracted using the RNeasy Tissue Mini Kit (Qiagen, Germany). Total RNA was reverse-transcribed (200 ng) using Impromp-II reverse transcriptase (Promega, Madison, Wis.) as instructed. RT-PCR was performed using Power SYBR®Green PCR Master Mix (Applied Biosystems, UK) in a 7900 HT Sequence Detection System (Applied Biosystems, Foster City, Calif.). Quantification was assessed at the logarithmic phase of the PCR reaction. The PCR annealing temperature was 60° C. for all primer pairs. GAPDH was used as a house-keeping gene.
Shown are fold differences in RT-PCR products of RAW264.7 cells incubated with the noted doses of mEN101 or ODN1826. Note that ODN1826 affects IL1α, -1β, -6, -10, -12 and ICAM-1 gene expression at concentrations as low as 10 nM, whereas considerably higher doses of mEN101 are needed to attain similar effects. Nevertheless, mEN101 affects inflammatory gene expression even at 10 nM. 1 μg/ml LPS was used as positive control. (n=3, p<0.05 Mann-Whitney U-test compared to untreated controls, for all the data shown).

[2] = system: RAW264.7 cells; test: HSP90β mRNA RT-PCR in RAW264.7 cells; format: cell-based, mouse; conditions: 24 hour incubation
Description: Cell cultures: The mouse macrophage cell line RAW 264.7 (ATCC, MD) was cultured in Dulbecco's modified Eagle's medium (DMEM) (Biological Industries, Israel) supplemented with 10% heat-inactivated fetal bovine serum (Biological Industries, Israel), 100 μg/ml streptomycin (Sigma), 100 U/ml penicillin (Sigma) and 2 mM 1-glutamine (Biological Industries, Israel) at 37° C. in a humidified atmosphere with 5% CO2.
Real-time PCR (RT-PCR): RAW264.7 cells and spleen were used for RT-PCR. 1×10^6 RAW264.7 cells were grown in 2 ml medium in 6 wells plates until 80% confluence was obtained. Total RNA was extracted using the RNeasy kit (Qiagen, CA, USA). Spleen and brain tissues' RNA was extracted using the RNeasy Tissue Mini Kit (Qiagen, Germany). In all cases, total RNA was reverse-transcribed (200 ng) using Impromp-II reverse transcriptase (Promega, WI, USA) according to manufacturer's instructions. RT-PCR was performed using Power SYBR®Green PCR Master Mix (Applied Biosystems, UK) in a 7900 HT Sequence Detection System (Applied Biosystems, CA). Quantification was assessed at the logarithmic phase of the PCR reaction. The PCR annealing temperature was 60° C. for all primer pairs.

5′-TCCATGACGTTCCTGACGTT-3′ [ODN1826, reference compound]
ICAM-1 RT-PCR product ([1]; 10 nM): −3.57 log2 from NT | IL1a RT-PCR product ([1]; 10 nM): 4.18 log2 from NT | IL1b RT-PCR product ([1]; 10 nM): 4.40 log2 from NT | IL6 RT-PCR product ([1]; 10 nM): 3.57 log2 from NT | IL10 RT-PCR product ([1]; 10 nM): 3.74 log2 from NT | IL12 RT-PCR product ([1]; 10 nM): 3.57 log2 from NT | ICAM-1 RT-PCR product ([1]; 100 nM): −3.14 log2 from NT | IL1a RT-PCR product ([1]; 100 nM): 5.33 log2 from NT | IL1b RT-PCR product ([1]; 100 nM): 5.63 log2 from NT | IL6 RT-PCR product ([1]; 100 nM): 3.71 log2 from NT | IL10 RT-PCR product ([1]; 100 nM): 4.28 log2 from NT | IL12 RT-PCR product ([1]; 100 nM): 4.28 log2 from NT | HSP90β mRNA levels [2]: significantly increased HSP90β mRNA levels
